What was measured:
human D4.4-receptor = target: T1, human D4.4-receptor (Homo sapiens, UniProt P21917); assay: radioligand binding, [3H]spiperone, CHO cell membrane homogenates expressing human D4.4; details: for Ki: human D4.4, [3H]spiperon, average of 2-6 experiments in triplicate; for D3-selectivity D4.4/D3: ratio of Ki values D4.4/D3
T1 construct: expressed in transfected cells
T1 sequence (P21917 1-419): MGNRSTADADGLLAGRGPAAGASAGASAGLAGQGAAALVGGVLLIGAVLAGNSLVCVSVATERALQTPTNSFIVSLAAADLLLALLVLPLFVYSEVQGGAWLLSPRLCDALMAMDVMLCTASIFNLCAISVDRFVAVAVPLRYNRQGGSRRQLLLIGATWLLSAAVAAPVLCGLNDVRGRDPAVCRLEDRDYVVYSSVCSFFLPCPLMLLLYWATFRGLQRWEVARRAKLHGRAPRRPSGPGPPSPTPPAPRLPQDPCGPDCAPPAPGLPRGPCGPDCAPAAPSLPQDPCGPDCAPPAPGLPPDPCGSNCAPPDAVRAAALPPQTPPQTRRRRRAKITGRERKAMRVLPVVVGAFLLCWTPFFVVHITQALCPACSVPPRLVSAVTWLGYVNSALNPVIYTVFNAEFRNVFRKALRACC
Method: (§1) The biological activities of the compounds according to the invention were determined in radioligand bonding investigations. […] Mol. […] Neurochem. […] Basically the binding assays took place by incubation of the receptor homogenates with the radioligand [^3H]spiperone and the compounds under investigation in various concentrations.

human D2short = target: T2, human D2short (Homo sapiens, UniProt P14416); assay: radioligand binding, [3H]spiperone, CHO cell membrane homogenates expressing human D2short; details: for Ki: human D2short, [3H]spiperon, average of 2-6 experiments in triplicate; for D3-selectivity D2short/D3: ratio of Ki values D2short/D3
T2 construct: expressed in transfected cells
T2 sequence (P14416 1-414 isoform P14416-2): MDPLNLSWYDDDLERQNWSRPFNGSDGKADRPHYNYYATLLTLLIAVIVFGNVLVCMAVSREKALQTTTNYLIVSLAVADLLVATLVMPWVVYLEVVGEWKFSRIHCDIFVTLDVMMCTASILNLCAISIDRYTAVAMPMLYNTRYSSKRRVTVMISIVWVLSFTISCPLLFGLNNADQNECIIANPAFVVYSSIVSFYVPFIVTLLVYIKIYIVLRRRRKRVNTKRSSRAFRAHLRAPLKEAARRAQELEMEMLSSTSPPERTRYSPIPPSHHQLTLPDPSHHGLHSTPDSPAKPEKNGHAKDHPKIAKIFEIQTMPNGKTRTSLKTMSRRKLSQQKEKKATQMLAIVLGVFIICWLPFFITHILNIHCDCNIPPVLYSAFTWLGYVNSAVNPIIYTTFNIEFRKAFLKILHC
Method: as §1

human D3 = target: T3, human D3 (Homo sapiens, UniProt P35462); assay: radioligand binding, [3H]spiperone, CHO cell membrane homogenates expressing human D3; details: human D3, [3H]spiperon; average of 2-6 experiments in triplicate
T3 construct: expressed in transfected cells
T3 sequence (P35462 whole entry): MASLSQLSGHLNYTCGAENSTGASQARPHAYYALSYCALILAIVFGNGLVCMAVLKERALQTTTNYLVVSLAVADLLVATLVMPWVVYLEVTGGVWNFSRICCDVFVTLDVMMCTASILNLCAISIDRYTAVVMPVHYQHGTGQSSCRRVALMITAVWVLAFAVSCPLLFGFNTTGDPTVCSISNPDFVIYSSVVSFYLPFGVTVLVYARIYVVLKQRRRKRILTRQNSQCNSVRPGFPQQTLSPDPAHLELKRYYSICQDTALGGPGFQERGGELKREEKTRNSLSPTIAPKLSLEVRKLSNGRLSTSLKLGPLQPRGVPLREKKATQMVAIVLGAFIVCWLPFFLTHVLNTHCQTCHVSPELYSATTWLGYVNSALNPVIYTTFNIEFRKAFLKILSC
Method: (§2) The biological activities of the compounds according to the invention were determined in radioligand bonding investigations. All radioligand experiments were performed according to methods described by us (Hübner, H. et al. J. Med. Chem. 2000, 43, 756-762). For the measurement of the affinities to the receptors of the D2-family membrane homogenates of Chinese hamster ovary cells (CHO cells) were used, which stably express the human D2long-, the human D2short- (Hayes, G. et al. Mol. Endocrinol. 1992, 6, 920-926), the human D3- (Sokoloff, P. et al. Eur. J. Pharmacol. 1992, 225, 331-337) or the human D4.4-receptor sub-type, (Asghari, V. J. Neurochem. 1995, 65,1157-1165) respectively. Basically the binding assays took place by incubation of the receptor homogenates with the radioligand [^3H]spiperone and the compounds under investigation in various concentrations. Determination of the affinities to the D1-receptor took place with native membrane homogenates, obtained from porcine striatum, and the D1-selective radioligands [^3H]SCH 23390.

dopamine-D3-receptor = target: T4, dopamine-D3-receptor (Homo sapiens, UniProt P35462); assay: mitogenesis assay, [3H]thymidine incorporation in D3 receptor-expressing cells; format: cell-based; details: for EC50: dose-effect curve from average values of all individual trials, seven concentrations in quadruplicate; for classification of intrinsic activity at the D3-receptor: mitogenesis assay, compared with full agonist quinpirol; for agonistic activity: with reference to the maximum effect of the full agonist Quinpirol
T4 construct: expressed in transfected cells
T4 sequence (P35462 whole entry): as above
Method: Here various concentrations of the compound under investigation were incubated with D3 receptor-expressing cells and then the receptor-mediated stimulation of the mitogenesis rate was measured by incorporation of the radioactive marker [^3H]thymidine.

5-HT2 = 5-HT2 (Sus scrofa, UniProt P50129); assay: radioligand binding, [3H]ketanserin, porcine cortex-membrane preparations; details: for Ki: porcine 5-HT2, [3H]ketanserin, average of 2 experiments in triplicate; for D3-selectivity 5-HT2/D3: ratio of Ki values 5-HT2/D3
5-HT2, sequence (P50129 whole entry): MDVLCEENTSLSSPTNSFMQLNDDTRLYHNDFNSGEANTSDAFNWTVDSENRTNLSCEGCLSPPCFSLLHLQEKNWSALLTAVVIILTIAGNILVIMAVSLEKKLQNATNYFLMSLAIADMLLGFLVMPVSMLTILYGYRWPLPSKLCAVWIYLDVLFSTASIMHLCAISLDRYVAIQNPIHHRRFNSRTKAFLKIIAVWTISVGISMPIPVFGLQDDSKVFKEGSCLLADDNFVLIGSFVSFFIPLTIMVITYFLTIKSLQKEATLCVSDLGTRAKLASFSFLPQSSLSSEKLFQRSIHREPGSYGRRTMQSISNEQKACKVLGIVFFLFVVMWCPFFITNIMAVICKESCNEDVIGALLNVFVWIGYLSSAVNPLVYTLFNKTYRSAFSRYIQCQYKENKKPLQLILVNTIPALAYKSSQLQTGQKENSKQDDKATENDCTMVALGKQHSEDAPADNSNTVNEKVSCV
Method: (§3) Measurement of the bonding strengths of the compounds to the serotonin-receptor subtypes 5-HT1A and 5-HT2 was carried out according to methods described by us (Heindl, C. et al. Tetrahedron: Asymmetry 2003, 14, 3141-3152). For this we incubated porcine cortex-membrane preparations with the radioligands [^3H]8-OH-DPAT (for 5-HT1A) or [^3H]ketanserin (5-HT2) and the compounds in various concentrations. In the same way the affinity of the test compounds to the porcine α1-receptor was investigated, wherein porcine cortex-membrane preparations and the α1-selective radioligand [^3H]prazosin were used.

porcine α1-receptor [1] = target: T5, porcine α1-receptor; assay: radioligand binding, [3H]prazosin, porcine cortex-membrane preparations; details: porcine α1, [3H]prazosin; average of 2 experiments in triplicate
T5 construct: Ki-values α1; other: porcine α1, [3H]prazosin; average of 2 experiments in triplicate
Method: as §3

porcine α1-receptor [2] = assay: as above; details: ratio of Ki values α1/D3
Method: as §3

human D2long = target: T6, human D2long (Homo sapiens, UniProt P14416); assay: radioligand binding, [3H]spiperone, CHO cell membrane homogenates expressing human D2long; details: for Ki: human D2long, [3H]spiperon, average of 2-6 experiments in triplicate; for D3-selectivity D2long/D3: ratio of Ki values D2long/D3
T6 construct: expressed in transfected cells
T6 sequence (P14416 whole entry): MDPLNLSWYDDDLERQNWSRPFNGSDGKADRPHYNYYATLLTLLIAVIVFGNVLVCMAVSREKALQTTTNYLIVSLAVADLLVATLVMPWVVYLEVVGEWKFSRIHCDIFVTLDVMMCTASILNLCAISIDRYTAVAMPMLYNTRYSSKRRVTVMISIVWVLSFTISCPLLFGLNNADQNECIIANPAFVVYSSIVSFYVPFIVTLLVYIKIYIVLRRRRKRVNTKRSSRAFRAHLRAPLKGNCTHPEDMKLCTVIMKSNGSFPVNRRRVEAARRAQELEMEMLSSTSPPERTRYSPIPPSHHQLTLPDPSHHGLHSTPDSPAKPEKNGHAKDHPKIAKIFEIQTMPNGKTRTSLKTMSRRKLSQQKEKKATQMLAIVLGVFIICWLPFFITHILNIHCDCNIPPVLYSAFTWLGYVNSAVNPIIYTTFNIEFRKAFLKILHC
Method: as §1

D1-receptor = target: T7, D1-receptor (Sus scrofa, UniProt P50130); assay: radioligand binding, D1 receptor, [3H]SCH 23390, porcine striatum membrane homogenates; details: porcine D1, [3H]SCH 23390; average of 2-6 experiments in triplicate
T7 construct: native membrane homogenates, obtained from porcine striatum; from tissue; host or cells: porcine striatum
T7 sequence (P50130 whole entry): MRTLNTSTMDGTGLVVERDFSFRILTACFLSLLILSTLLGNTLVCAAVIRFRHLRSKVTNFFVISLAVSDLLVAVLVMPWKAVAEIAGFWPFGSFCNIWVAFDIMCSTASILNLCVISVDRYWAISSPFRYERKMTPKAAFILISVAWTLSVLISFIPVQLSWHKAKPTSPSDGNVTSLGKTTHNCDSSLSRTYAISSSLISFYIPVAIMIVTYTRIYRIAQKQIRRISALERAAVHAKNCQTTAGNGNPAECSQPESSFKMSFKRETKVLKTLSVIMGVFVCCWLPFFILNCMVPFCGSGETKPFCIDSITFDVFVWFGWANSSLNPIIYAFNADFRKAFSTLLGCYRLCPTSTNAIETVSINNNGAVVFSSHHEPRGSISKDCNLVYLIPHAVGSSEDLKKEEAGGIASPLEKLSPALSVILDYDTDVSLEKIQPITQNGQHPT
Method: as §2

5-HT1A [3] = assay: radioligand binding, [3H]8-OH-DPAT, porcine cortex-membrane preparations; details: ratio of Ki values 5-HT1A/D3
Method: as §3

5-HT1A [4] = target: T8, 5-HT1A (Sus scrofa, UniProt A0A4X1UTF5); assay: as above; details: porcine 5-HT1A, [3H]8-OH-DPAT; average of 2 experiments in triplicate
T8 construct: we incubated porcine cortex-membrane preparations with the radioligands; from tissue; host or cells: porcine cortex
T8 sequence (A0A4X1UTF5 1-422): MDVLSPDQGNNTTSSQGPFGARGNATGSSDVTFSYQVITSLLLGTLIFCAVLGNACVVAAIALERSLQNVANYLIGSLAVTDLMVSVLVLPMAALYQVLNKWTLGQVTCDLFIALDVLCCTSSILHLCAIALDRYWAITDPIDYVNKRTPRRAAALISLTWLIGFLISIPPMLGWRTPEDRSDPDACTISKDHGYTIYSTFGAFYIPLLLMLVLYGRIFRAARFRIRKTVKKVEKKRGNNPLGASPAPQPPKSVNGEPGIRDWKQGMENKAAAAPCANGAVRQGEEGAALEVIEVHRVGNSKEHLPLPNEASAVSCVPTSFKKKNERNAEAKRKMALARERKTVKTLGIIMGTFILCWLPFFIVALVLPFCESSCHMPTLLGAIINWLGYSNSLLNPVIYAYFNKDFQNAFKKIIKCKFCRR
Method: as §3

SMILES | Ki (human D4.4-receptor) | D3-selectivity D4.4/D3 (human D4.4-receptor) | Ki (human D2short) | D3-selectivity D2short/D3 (human D2short) | Ki (human D3) | EC50 (dopamine-D3-receptor) | classification of intrinsic activity at the D3-receptor (dopamine-D3-receptor) | agonistic activity (dopamine-D3-receptor) | Ki (5-HT2) | melting point | Ki (porcine α1-receptor [1]) | D3-selectivity α1/D3 (porcine α1-receptor [2]) | Ki (human D2long) | D3-selectivity D2long/D3 (human D2long) | Ki (D1-receptor) | D3-selectivity 5-HT1A/D3 (5-HT1A [3]) | Ki (5-HT1A [4]) | D3-selectivity 5-HT2/D3 (5-HT2)
COc1ccccc1N1CCN(CCCCNC(=O)c2cc3cccnc3[nH]2)CC1 [Example 1, N-(4-(4-(2-methoxyphenyl)piperazin-1-yl)butyl)-1H-pyrrolo[2,3-b]pyridin-2-ylcarbamide] | 32 nM | 39 | 42 nM | 51 | 0.82 nM | 0.96 nM | weakly partially agonistic | 14% | 340 nM | 117 °C | 1.3 nM | 1.6 | 58 nM | 71 | 1500 nM | 28 | 23 nM | 
COc1ccccc1N1CCN(CCCCNC(=O)c2cc3cccnc3n2S(=O)(=O)c2ccccc2)CC1 [Example 2, N-(4-(4-(2-methoxyphenyl)piperazin-1-yl)butyl)-1-phenylsulfonyl-1H-pyrrolo[2,3-b]pyridin-2-ylcarbamide] | 130 nM | 14 | 110 nM | 12 | 9.3 nM | 7.9 nM | weakly partially agonistic | 12% | 1100 nM | 166 °C | 4.6 nM | 0.49 | 180 nM | 19 | 1300 nM | 1.5 | 14 nM | 120
O=C(NCCCCN1CCN(c2cccc(Cl)c2Cl)CC1)c1cc2cccnc2[nH]1 [Example 3, N-(4-(4-(2,3-dichlorophenyl)piperazin-1-yl)butyl)-1H-pyrrolo[2,3-b]pyridin-2-ylcarbamide] | 42 nM | 320 | 6.5 nM | 34 | 0.13 nM | 1.3 nM | partial agonist | 41% | 63 nM | 232 °C | 3.6 nM | 28 | 19 nM | 150 | 440 nM | 180 | 24 nM | 480
O=C(NCCCCN1CCN(c2cccc(Cl)c2Cl)CC1)c1cc2cccnc2n1S(=O)(=O)c1ccccc1 [Example 4, N-(4-(4-(2,3-dichlorophenyl)piperazin-1-yl)butyl)-1-phenylsulfonyl-1H-pyrrolo[2,3-b]pyridin-2-ylcarbamide] | 110 nM | 140 | 39 nM | 49 | 0.8 nM | 2.1 nM | weakly partially agonistic | 16% | 200 nM | 82 °C | 21 nM | 26 | 68 nM | 85 | 680 nM | 20 | 16 nM | 250

Source: US20070299091A1, “Azaindole Carboxamides” (priority 2004, published 2007)
